Reference: ChEMBL document CHEMBL4152371, “A truncated RHAMM protein for discovering novel therapeutic peptides” (Bioorg Med Chem, 2018)
Calls of active or inactive are those of the source. The rule behind the calls is not given here.

Experiments:
[1] = target: T1, Hyaluronan mediated motility receptor (Homo sapiens) (UniProt O75330); test: Inhibition of C-terminal His-tagged 7 kDa RHAMM (unknown origin) binding to HA assessed as association constant at 1000 nM after 240 secs by SPR method
T1 sequence (whole entry): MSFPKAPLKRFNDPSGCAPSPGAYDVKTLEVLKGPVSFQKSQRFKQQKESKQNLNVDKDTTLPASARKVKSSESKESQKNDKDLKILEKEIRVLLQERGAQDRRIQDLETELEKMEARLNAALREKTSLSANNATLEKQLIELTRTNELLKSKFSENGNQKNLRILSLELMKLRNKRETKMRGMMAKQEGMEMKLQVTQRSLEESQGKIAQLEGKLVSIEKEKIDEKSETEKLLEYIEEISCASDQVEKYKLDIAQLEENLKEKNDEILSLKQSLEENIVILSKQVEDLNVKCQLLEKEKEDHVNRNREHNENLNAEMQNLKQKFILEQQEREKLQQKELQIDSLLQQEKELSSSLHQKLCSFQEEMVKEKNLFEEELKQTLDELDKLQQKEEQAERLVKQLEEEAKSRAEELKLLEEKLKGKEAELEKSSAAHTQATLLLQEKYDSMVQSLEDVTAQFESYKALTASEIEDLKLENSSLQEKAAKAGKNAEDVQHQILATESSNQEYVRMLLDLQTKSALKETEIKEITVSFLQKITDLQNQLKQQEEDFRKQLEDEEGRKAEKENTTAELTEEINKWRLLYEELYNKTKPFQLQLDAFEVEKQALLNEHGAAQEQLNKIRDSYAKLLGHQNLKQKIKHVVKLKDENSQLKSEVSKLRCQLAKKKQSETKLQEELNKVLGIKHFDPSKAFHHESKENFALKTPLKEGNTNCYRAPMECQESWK

[2] = target: T1, Hyaluronan mediated motility receptor (Homo sapiens); test: Inhibition of C-terminal His-tagged 7 kDa RHAMM (unknown origin) binding to HA assessed as association constant at 750 nM after 240 secs by SPR method
[3] = target: T1, Hyaluronan mediated motility receptor (Homo sapiens); test: Inhibition of C-terminal His-tagged 7 kDa RHAMM (unknown origin) binding to HA assessed as association constant at 500 nM after 240 secs by SPR method
[4] = target: T1, Hyaluronan mediated motility receptor (Homo sapiens); test: Inhibition of C-terminal His-tagged 7 kDa RHAMM (unknown origin) binding to HA assessed as association constant at 100 nM after 240 secs by SPR method
[5] = target: T1, Hyaluronan mediated motility receptor (Homo sapiens); test: Inhibition of C-terminal His-tagged 7 kDa RHAMM (unknown origin) binding to HA assessed as association constant at 10 nM after 240 secs by SPR method
[6] = target: T1, Hyaluronan mediated motility receptor (Homo sapiens); test: Inhibition of C-terminal His-tagged 7 kDa RHAMM (unknown origin) binding to HA assessed as association constant at 1 nM after 240 secs by SPR method
[7] = target: T2, Hyaluronan mediated motility receptor (Homo sapiens, UniProt O75330); test: Inhibition of C-terminal His-tagged 7 kDa RHAMM (unknown origin) binding to HA after 240 secs by SPR method
T2 sequence (O75330 whole entry): T1 sequence (whole entry)

[8] = target: T2, Hyaluronan mediated motility receptor; test: Inhibition of recombinant RHAMM (unknown origin) binding to HA after 240 secs by SPR method
[9] = target: T1, Hyaluronan mediated motility receptor (Homo sapiens); test: Inhibition of C-terminal His-tagged 7 kDa RHAMM (unknown origin) binding to HA at 1 to 1000 nM after 240 secs by SPR method

Substance	K [1]	K [2]	K [3]	K [4]	K [5]	K [6]	Kd [7]	Kd [8]	inhibition [9]
H-EEDFGEEAEEEA-NH2	4 ×10⁴ /M.s	3.3 ×10⁴ /M.s	3 ×10⁴ /M.s	1.4 ×10⁴ /M.s	2.3 ×10⁴ /M.s	5.7 ×10⁴ /M.s	202 nM	32.6 nM	
H-FTEAESNMNDLV-NH2	2 ×10⁴ /M.s	3.5 ×10⁴ /M.s	4.9 ×10⁴ /M.s	0.1 ×10⁴ /M.s	0.5 ×10⁴ /M.s	0.8 ×10⁴ /M.s	20.9 nM	30.2 nM	
H-SVEAEAEEGEEY-NH2	1.3 ×10⁴ /M.s	1.9 ×10⁴ /M.s	2.3 ×10⁴ /M.s	1.4 ×10⁴ /M.s	0.16 ×10⁴ /M.s	0.02 ×10⁴ /M.s	31.9 nM	331 nM	

Now from value to substance:

K [1]	K [2]	K [3]	K [4]	K [5]	K [6]	Kd [7]	Kd [8]	inhibition [9]	Substance
3.4 ×10⁴ /M.s	2.9 ×10⁴ /M.s	0.9 ×10⁴ /M.s	3.1 ×10⁴ /M.s	3.1 ×10⁴ /M.s	3.7 ×10⁴ /M.s	289 nM	211 nM		H-EAFEDEEEEIDG-NH2
1.6 ×10⁴ /M.s	1.2 ×10⁴ /M.s	1 ×10⁴ /M.s	1.5 ×10⁴ /M.s	0.22 ×10⁴ /M.s	0.48 ×10⁴ /M.s	265 nM	130 nM		H-GEFEEEAEEEVA-NH2
								inactive	H-GEFSEAREDMAA-NH2
4.1 ×10⁴ /M.s	5 ×10⁴ /M.s	5.8 ×10⁴ /M.s	0.2 ×10⁴ /M.s	1.6 ×10⁴ /M.s	0.7 ×10⁴ /M.s	43.3 nM	24.2 nM		H-VEGEGEEEGEEY-NH2
